Activity calls are given as the source filed them. No rule for the calls is given here.
Experiments:
[1] = molecular target: In vitro counter assay against key known off-targets for selectedBMP Compounds; experiment: PubChem AID 686923; conditions: in vitro kinase counter-screen panel
[2] = molecular target: Vascular endothelial growth factor receptor 2 (Homo sapiens) (UniProt P35968); experiment: PubChem AID 686923; conditions: in vitro kinase counter-screen panel
Sequence of Vascular endothelial growth factor receptor 2 (Homo sapiens) (P35968 whole entry, looked up): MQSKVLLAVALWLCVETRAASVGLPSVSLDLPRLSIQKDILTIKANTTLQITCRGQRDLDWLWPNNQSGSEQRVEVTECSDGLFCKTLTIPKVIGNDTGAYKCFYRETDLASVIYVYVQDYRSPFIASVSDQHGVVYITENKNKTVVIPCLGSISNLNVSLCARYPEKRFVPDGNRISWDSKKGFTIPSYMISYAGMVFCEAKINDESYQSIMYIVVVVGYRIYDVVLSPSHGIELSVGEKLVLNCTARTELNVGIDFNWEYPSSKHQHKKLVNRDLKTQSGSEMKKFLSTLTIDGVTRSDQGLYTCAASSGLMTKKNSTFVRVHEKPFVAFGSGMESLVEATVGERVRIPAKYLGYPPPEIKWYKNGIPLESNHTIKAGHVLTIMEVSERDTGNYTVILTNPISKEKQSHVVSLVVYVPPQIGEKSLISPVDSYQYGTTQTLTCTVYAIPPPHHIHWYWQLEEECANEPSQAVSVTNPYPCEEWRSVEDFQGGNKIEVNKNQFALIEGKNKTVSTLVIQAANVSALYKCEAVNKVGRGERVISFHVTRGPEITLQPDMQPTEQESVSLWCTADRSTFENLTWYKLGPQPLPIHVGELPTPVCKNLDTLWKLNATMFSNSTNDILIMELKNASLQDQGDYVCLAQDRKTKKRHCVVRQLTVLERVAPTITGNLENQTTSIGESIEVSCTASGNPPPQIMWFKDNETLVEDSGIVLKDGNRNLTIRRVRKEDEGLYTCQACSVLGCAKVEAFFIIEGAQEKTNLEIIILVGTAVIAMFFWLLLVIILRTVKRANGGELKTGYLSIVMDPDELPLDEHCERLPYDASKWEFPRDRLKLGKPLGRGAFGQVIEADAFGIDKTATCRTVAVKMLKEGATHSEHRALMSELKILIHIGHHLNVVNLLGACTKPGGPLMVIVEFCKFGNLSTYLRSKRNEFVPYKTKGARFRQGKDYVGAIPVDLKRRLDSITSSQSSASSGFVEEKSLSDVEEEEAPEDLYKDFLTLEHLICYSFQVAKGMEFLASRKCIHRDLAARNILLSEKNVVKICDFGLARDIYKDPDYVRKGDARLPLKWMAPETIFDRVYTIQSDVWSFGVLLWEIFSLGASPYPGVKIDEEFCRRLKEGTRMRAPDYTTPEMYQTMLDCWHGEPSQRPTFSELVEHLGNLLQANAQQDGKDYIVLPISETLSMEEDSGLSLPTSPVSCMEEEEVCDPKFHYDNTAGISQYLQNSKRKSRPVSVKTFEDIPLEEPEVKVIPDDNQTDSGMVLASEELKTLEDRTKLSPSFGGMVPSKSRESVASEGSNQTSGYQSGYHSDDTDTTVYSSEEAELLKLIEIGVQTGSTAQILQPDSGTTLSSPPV

Row | Structure (SMILES) | IC50 [1] | IC50 [2]
1 | c1cc(-c2cnn3cc(-c4ccc(N5CCNCC5)cc4)cnc23)c2cccnc2c1 | 253 µM | 
2 | COc1ccc(-c2cnc3c(-c4cccc5cccnc45)cnn3c2)cc1 | inactive | inactive
3 | COc1ccc(-c2cnc3c(-c4cccc5ncccc45)cnn3c2)cc1 |  | inactive
